The EC50 is the concentration that produces a half-maximal response.

Consider 27 molecules from patent US10351547B2, “Somatostatin modulators and uses thereof” (priority 2016, dated 2019).

Chain of human SSTR2 (P30874 whole entry): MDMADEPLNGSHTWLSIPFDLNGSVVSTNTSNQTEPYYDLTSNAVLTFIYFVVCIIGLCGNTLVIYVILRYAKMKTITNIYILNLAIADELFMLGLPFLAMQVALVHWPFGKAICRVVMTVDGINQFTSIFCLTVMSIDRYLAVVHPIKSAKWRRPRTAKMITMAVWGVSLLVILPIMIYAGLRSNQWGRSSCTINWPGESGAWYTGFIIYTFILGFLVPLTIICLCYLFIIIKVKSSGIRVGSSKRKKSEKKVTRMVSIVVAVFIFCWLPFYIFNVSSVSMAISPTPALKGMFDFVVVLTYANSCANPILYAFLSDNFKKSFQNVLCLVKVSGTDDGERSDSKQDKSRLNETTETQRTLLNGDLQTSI

The first test has as its target human SSTR2 (Homo sapiens (Human), UniProt P30874). Description: Human SSTR2 intracellular cAMP functional assay for agonists (HTRF). It counts as cell-based.
Conditions: not given
Here is the method:
Functional Assay for SSTR2 Agonists
General overview: All five SSTR subtypes are Gi coupled G-protein coupled receptors (GPCRs) that lead to decreases in intracellular cyclic AMP (cAMP) when activated by an agonist. […] Human SSTR2 intracellular cAMP assay is described below. The human SSTR1, 3, 4 and 5 assays follow the same protocol of SSTR2.
The cells are cultured at 37° C., 5% CO2 and 95% humidity. […] The cells are incubated for 20 minutes at 37° C. […] The cells are treated with 50 μL of lysis buffer (HRTF cAMP kit, Cisbio). […] The time-resolved fluorescent signal is read with a Tecan M1000Pro multiplate reader. The intracellular cAMP concentrations are calculated by regression to a standard curve and are plotted vs. the concentration of the compounds of the invention and the EC50 of the compounds are calculated using standard methods. All data manipulations are in GraphPad Prism v6.
On the technique in general: In TR-FRET formats the signal depends on donor and acceptor labels being close together.
In turn, `N#Cc1cccc(-c2ccc3ncc(-c4cc(F)cc(F)c4)c(N4CC[C@@H](N)[C@@H](O)C4)c3c2)c1O` (relative stereo) [2-60, cis-3-{4-[4-amino-3-hydroxypiperidin-1-yl]-3-(3,5-difluorophenyl)quinolin-6-yl}-2-hydroxybenzonitrile] gave an EC50 of less than 10 nM.
Same read-out and setting: the figure for `CNC(=O)[C@@H]1CN(c2c(-c3cc(F)cc(F)c3)cnc3ccc(-c4cccc(C#N)c4O)cc23)CC[C@H]1N` (relative stereo) [2-149, trans-4-Amino-1-[6-(3-cyano-2-hydroxyphenyl)-3-(3,5-difluorophenyl)quinolin-4-yl]-N-methylpiperidine-3-carboxamide] is 100 to 1000 nM; for `COC(=O)[C@@H]1CN(c2c(-c3cc(F)cc(F)c3)cnc3ccc(-c4cccc(C#N)c4O)cc23)CC[C@H]1N` (relative stereo) [2-170, methyl (trans)-4-amino-1-[6-(3-cyano-2-hydroxyphenyl)-3-(3,5-difluorophenyl)quinolin-4-yl]piperidine-3-carboxylate] it is 100 to 1000 nM.

The test is the same for the next values; noted with them: CHO-K1 cells stably expressing human SSTR2; NKH477-stimulated cAMP; read-out: EC50 (inhibition of cAMP activities via human SST2R).
As for `COCOc1c(C#N)cccc1-c1ccc2ncc(-c3cc(F)cc(F)c3)c(N3CC[C@H](N)[C@H](O)C3)c2c1` (relative stereo) [2-58, 3-{4-[cis-4-amino-3-hydroxypiperidin-1-yl]-3-(3,5-difluorophenyl)quinolin-6-yl}-2-(methoxymethoxy)benzonitrile], the EC50 was less than 10 nM.
For `N#Cc1cc(F)cc(-c2ccc3ncc(-c4cc(F)cc(F)c4)c(N4CC[C@H](N)[C@H](O)C4)c3c2)c1O` (relative stereo) [2-63, 3-{4-[cis-4-amino-3-hydroxypiperidin-1-yl]-3-(3,5-difluorophenyl)quinolin-6-yl}-5-fluoro-2-hydroxybenzonitrile], the EC50 is less than 10 nM.
The same measure, in the same setting: as for `N#Cc1cccc(-c2ccc3ncc(-c4cc(F)cc(F)c4)c(N4CC[C@@H](N)[C@H](C#N)C4)c3c2)c1O` (relative stereo) [2-92, trans-4-amino-1-[6-(3-cyano-2-hydroxyphenyl)-3-(3,5-difluorophenyl)quinolin-4-yl]piperidine-3-carbonitrile], the figure is 100 to 1000 nM.
The same measure, in the same setting: the figure for `N#Cc1cccc(-c2ccc3ncc(-c4cc(F)cc(F)c4)c(N4CC[C@H](N)[C@H](C#N)C4)c3c2)c1O` (relative stereo) [2-94, cis-4-amino-1-[6-(3-cyano-2-hydroxyphenyl)-3-(3,5-difluorophenyl)quinolin-4-yl]piperidine-3-carbonitrile] is 10 to 100 nM.
Regarding `N#Cc1cc(F)c(F)c(-c2ccc3ncc(-c4cc(F)cc(F)c4)c(N4CC[C@H]5NCCO[C@@H]5C4)c3c2)c1O` (relative stereo) [2-100, 3-{4-[trans-octahydro-1H-pyrido[3,4-b]morpholin-6-yl]-3-(3,5-difluorophenyl)quinolin-6-yl}-4,5-difluoro-2-hydroxybenzonitrile], the EC50 was 10 to 100 nM.
`COC(=O)[C@@H]1CN(c2c(-c3cc(F)cc(F)c3)cnc3ccc(-c4cccc(C#N)c4O)cc23)CC[C@H]1N` (relative stereo) [2-143, methyl trans-4-amino-1-[6-(3-cyano-2-hydroxyphenyl)-3-(3,5-difluorophenyl)quinolin-4-yl]piperidine-3-carboxylate]: the EC50 was less than 10 nM.
Same read-out and setting: the figure for `N#Cc1cccc(-c2ccc3ncc(-c4cc(F)cc(F)c4)c(N4CC[C@@H](N)[C@H](C(N)=O)C4)c3c2)c1O` (relative stereo) [2-146, trans-4-Amino-1-[6-(3-cyano-2-hydroxyphenyl)-3-(3,5-difluorophenyl)quinolin-4-yl]piperidine-3-carboxamide] is greater than 1000 nM.
Still for that read-out and setting: as for `CN(C)C(=O)[C@@H]1CN(c2c(-c3cc(F)cc(F)c3)cnc3ccc(-c4cccc(C#N)c4O)cc23)CC[C@H]1N` (relative stereo) [2-151, trans-4-amino-1-[6-(3-cyano-2-hydroxyphenyl)-3-(3,5-difluorophenyl)quinolin-4-yl]-N,N-dimethylpiperidine-3-carboxamide], the figure is 100 to 1000 nM; as for `Cc1cc(F)cc(-c2cnc3ccc(-c4cc(F)cc(C#N)c4O)cc3c2N2CC[C@H](N)[C@H](O)C2)c1` (relative stereo) [2-219, cis-3-{4-[4-amino-3-hydroxypiperidin-1-yl]-3-(3-fluoro-5-methylphenyl)quinolin-6-yl}-5-fluoro-2-hydroxybenzonitrile], less than 10 nM.
Take `COCCOc1c(C#N)cc(F)cc1-c1ccc2ncc(-c3cc(C)cc(F)c3)c(N3CC[C@H](N)[C@H](O)C3)c2c1` (relative stereo) [2-220, cis-3-{4-[4-amino-3-hydroxypiperidin-1-yl]-3-(3-fluoro-5-methylphenyl)quinolin-6-yl}-5-fluoro-2-(2-methoxyethoxy)benzonitrile]: the EC50 was less than 10 nM.
On the same count and under the same terms, the figure for `CON=Cc1cccc(-c2ccc3ncc(-c4cc(C)cc(F)c4)c(N4CC[C@H]5NCCO[C@@H]5C4)c3c2)c1O` (relative stereo) [2-221, 2-{4-[trans-octahydro-1H-pyrido[3,4-b]morpholin-6-yl]-3-(3-fluoro-5-methylphenyl)quinolin-6-yl}-6-[(methoxyimino)methyl]phenol] is less than 10 nM.
Same read-out and setting: the figure for `COCCOc1c(C#N)cccc1-c1ccc2ncc(-c3cc(F)cc(F)c3)c(N3CC[C@H](N)[C@H](O)C3)c2c1` (relative stereo) [2-225, cis-3-{4-[4-amino-3-hydroxypiperidin-1-yl]-3-(3,5-difluorophenyl)quinolin-6-yl}-2-(2-methoxyethoxy)benzonitrile] is less than 10 nM; for `COCCOc1c(C#N)cc(F)cc1-c1ccc2ncc(-c3cc(F)cc(F)c3)c(N3CC[C@H](N)[C@H](O)C3)c2c1` (relative stereo) [2-232, cis-3-{4-[4-amino-3-hydroxypiperidin-1-yl]-3-(3,5-difluorophenyl)quinolin-6-yl}-5-fluoro-2-(2-methoxyethoxy)benzonitrile] it is less than 10 nM.
On the same count and under the same terms, the figure for `COC(=O)Nc1c(F)cc(F)cc1-c1ccc2ncc(-c3cc(C)cc(F)c3)c(N3CC[C@@H](N)[C@H](OC)C3)c2c1` (relative stereo) [2-235, methyl N-(2-{4-[trans-4-amino-3-methoxypiperidin-1-yl]-3-(3-fluoro-5-methylphenyl)quinolin-6-yl}-4,6-difluorophenyl)carbamate] is less than 10 nM.
In the case of `Cn1cc(-c2ccc3ncc(-c4cc(F)cc(F)c4)c(N4CC[C@H]5NCCO[C@@H]5C4)c3c2)c(N)n1` (relative stereo) [2-245, 4-{4-[trans-octahydro-1H-pyrido[3,4-b]morpholin-6-yl]-3-(3,5-difluorophenyl)quinolin-6-yl}-1-methyl-1H-pyrazol-3-amine], the EC50 is less than 10 nM.
For the molecule `Cc1ccnc(-c2ccc3ncc(-c4cc(F)cc(F)c4)c(N4CC[C@H]5NCCO[C@@H]5C4)c3c2)c1N` (relative stereo) [2-247, 2-{4-[trans-octahydro-1H-pyrido[3,4-b]morpholin-6-yl]-3-(3,5-difluorophenyl)quinolin-6-yl}-4-methylpyridin-3-amine], the EC50 was less than 10 nM.
On the same count and under the same terms, the figure for `COCCNc1c(C#N)cncc1-c1ccc2ncc(-c3cc(F)cc(F)c3)c(N3CC[C@H]4NCCO[C@@H]4C3)c2c1` (relative stereo) [2-252, 5-{4-[trans-octahydro-1H-pyrido[3,4-b]morpholin-6-yl]-3-(3,5-difluorophenyl)quinolin-6-yl}-4-[(2-methoxyethyl)amino]pyridine-3-carbonitrile] is less than 10 nM; for `Cn1ncc(-c2ccc3ncc(-c4cc(F)cc(F)c4)c(N4CC[C@H]5NCCO[C@@H]5C4)c3c2)c1C=NO` (relative stereo) [2-253, N-[(4-{4-[trans-octahydro-1H-pyrido[3,4-b]morpholin-6-yl]-3-(3,5-difluorophenyl)quinolin-6-yl}-1-methyl-1H-pyrazol-5-yl)methylidene]hydroxylamine] it is less than 10 nM; for `Nc1cncnc1-c1ccc2ncc(-c3cc(F)cc(F)c3)c(N3CC[C@H]4NCCO[C@@H]4C3)c2c1` (relative stereo) [2-255, 4-{4-[trans-octahydro-1H-pyrido[3,4-b]morpholin-6-yl]-3-(3,5-difluorophenyl)quinolin-6-yl}pyrimidin-5-amine] it is 10 to 100 nM.
Same read-out and setting: the figure for `Oc1c(F)cncc1-c1ccc2ncc(-c3cc(F)cc(F)c3)c(N3CC[C@H]4NCCO[C@@H]4C3)c2c1` (relative stereo) [2-256] is 10 to 100 nM; for `Cn1cc(-c2ccc3ncc(-c4cc(F)cc(F)c4)c(N4CC[C@H]5NCCO[C@@H]5C4)c3c2)c(C(N)=O)n1` (relative stereo) [2-257, 4-{4-[trans-octahydro-1H-pyrido[3,4-b]morpholin-6-yl]-3-(3,5-difluorophenyl)quinolin-6-yl}-1-methyl-1H-pyrazole-3-carboxamide] it is 10 to 100 nM.
Regarding `Oc1ncc(F)cc1-c1ccc2ncc(-c3cc(F)cc(F)c3)c(N3CC[C@H]4NCCO[C@@H]4C3)c2c1` (relative stereo) [2-259], the EC50 was less than 10 nM.
Still for that read-out and setting: as for `Cn1cc(-c2ccc3ncc(-c4cc(F)cc(F)c4)c(N4CC[C@H]5NCCO[C@@H]5C4)c3c2)c(C=NO)n1` (relative stereo) [2-260, N-[(4-{4-[trans-octahydro-1H-pyrido[3,4-b]morpholin-6-yl]-3-(3,5-difluorophenyl)quinolin-6-yl}-1-methyl-1H-pyrazol-3-yl)methylidene]hydroxylamine], the figure is less than 10 nM; as for `N#Cc1ccnc(-c2ccc3ncc(-c4cc(F)cc(F)c4)c(N4CC[C@H]5NCCO[C@@H]5C4)c3c2)c1F` (relative stereo) [2-261, 2-{4-[trans-octahydro-1H-pyrido[3,4-b]morpholin-6-yl]-3-(3,5-difluorophenyl)quinolin-6-yl}-3-fluoropyridine-4-carbonitrile], 10 to 100 nM.
